Test results published in US9662063B2, “Pain sensory nerve stimulation apparatus” (INTER-UNIVERSITY RESEARCH INSTITUTE CORPORATION NATIONAL …, priority 2011, dated 2017).

System: C fibers
Assay: Current threshold for C fiber stimulation (anode stimulation) after application of capsaicin in vaseline to subjects
Assay type: in vivo
Conditions: for current threshold: anode stimulation of C fibers
Excerpt: Even when any one of the above-described configurations of the stimulation electrode 30 is used, at least one of an exogenous algesic substance 60 and a pyrogen 60 is interposed between the stimulation electrode 30 and the contact portion of the living body A, by means of, for example, application (FIG. 1). Examples of the exogenous algesic substance 60 are capsaicin, sanshool, zingerone, camphor, allyl isothiocyanate, and menthol. The exogenous algesic substance is a concept which contains an algesic substance, a phlogogenic substance, and an irritating substance. In the case where the exogenous algesic substance 60 is interposed by means of application, it is preferably applied about 20 minutes before stimulation of the living body. Preferably, the pyrogen 60 warms the stimulation portion of the living body A to about 30° C. by, for example, using heat generation due to an oxidation reaction of a metal. The operating section 24 includes a polarity conversion setting unit. The polarity conversion setting unit can give instructions for causing the polarity switching section 25 which is the electrical polarity converting unit, to convert the electrical polarity. According to the configuration, the electrical polarity of the needle electrode 31 can be set as the anode, and that of the contact electrode 32 can be set as the cathode, or, by contrast, the electrical polarity of the needle electrode 31 can be set as the cathode, and that of the contact electrode 32 can be set as the anode. […] In the case where the polarity switching section 25 sets the electrical polarity of the needle electrode 31 as the cathode, moreover, Aδ fibers can be selectively stimulated. Table 1 indicates results of measurements in which an appropriate amount (a weight ratio of about 0.05 to 0.1 with respect to vaseline) of capsaicin was applied as the exogenous algesic substance to four subjects. Table 1 indicates relationships between the current threshold in the case where the anode stimulation was performed on each subject and C fibers of each subject was stimulated, and the time period elapsed after the application. […] Since an effect due to stimulation was obtained even at a low stimulation intensity (mA), this minimizes the burden on a subject, and realizes the check of the nerve function. It was also confirmed that an effective examination can be conducted without being affected by the skill of the measuring person.

COc1cc(CNC(=O)CCCC/C=C/C(C)C)ccc1O [capsaicin]
current threshold (Subject 1, 5 minutes after application, capsaicin weight ratio about 0.05 to 0.1 with respect to vaseline): 0.10 (mA)
current threshold (Subject 1, 10 minutes after application): 0.10 (mA)
current threshold (Subject 1, 15 minutes after application): 0.09 (mA)
current threshold (Subject 1, 20 minutes after application): 0.09 (mA)
current threshold (Subject 2, 5 minutes after application): 0.32 (mA)
current threshold (Subject 2, 10 minutes after application): 0.18 (mA)
current threshold (Subject 2, 15 minutes after application): 0.13 (mA)
current threshold (Subject 2, 20 minutes after application): 0.15 (mA)
current threshold reduced to fraction of the normal value (Subject 2, during 20 minutes after the application): about one half
current threshold (Subject 3, 5 minutes after application): 0.14 (mA)
current threshold (Subject 3, 10 minutes after application): 0.13 (mA)
current threshold (Subject 3, 20 minutes after application): 0.09 (mA)
current threshold reduced to fraction of the normal value (Subject 3, during 20 minutes after the application): about two thirds
current threshold (Subject 4, 5 minutes after application): 0.05 (mA)
current threshold (Subject 4, 10 minutes after application): 0.04 (mA)
current threshold (Subject 4, 15 minutes after application): 0.04 (mA)
current threshold (Subject 4, 20 minutes after application): 0.04 (mA)
trend of the current threshold (four subjects, during 20 minutes after the application): downward trend
